According to patent EP4775583A1, “COMPOUND OR SALT THEREOF, METHOD FOR PRODUCING SAME, PHARMACEUTICAL COMPOSITION CONTAINING COMPOUND OR SALT THEREOF, AND METHOD FOR PRODUCING SAME” (Celaid Therapeutics Inc., priority 2023, dated 2025):
Entries after “also recorded” stand apart in the source; their conditions may differ. Where a name gives a salt, the structure may show the parent alone. Values belong to the compound of their own block, whether it stands above or below them.

Tests used:
[1] = system: mouse neuroblastoma N2a cells; assay: Neurite outgrowth assay; assay type: cell-based; settings: for dose-dependent neurite outgrowth activity: 0.02 - 2 µM, 48 h treatment (Fig. 21(C)); for neurite outgrowth / neurite outgrowth-promoting activity, comparison between compounds: 0.2 µM, 48 h treatment (Fig. 21(B)); for neurite outgrowth-promoting activity, comparison between compounds: structure-activity comparison
Experimental: The Mouse Neuro-2a (N2a) cell line was obtained from the Japanese Collection of Research Bioresources (JCRB) Cell Bank. The N2a cells were plated at a concentration of 1 × 10^4 cells/mL in Dulbecco's modified Eagle's medium (hereinafter also referred to as DMEM) containing high glucose, 10% FBS, 100 U/mL penicillin, and 100 µg/mL streptomycin at 37 °C in a humidified atmosphere of 5% CO2.
For the neurite outgrowth assay, the medium was changed to DMEM supplemented with 2% FBS. After incubation with the test compounds, cell morphology was examined using a microscope (Olympus CKX41).
The differentiated cells were defined as those with at least one neurite that was longer than twice the diameter of the cell body. The results were expressed as the percentage of differentiated cells among the counted cells. These experiments were carried out in triplicate.

[2] = molecular target: T1, KDM5A (Mus musculus, UniProt Q3UXZ9); assay: Western blot detection of KDM5A levels (degradation); assay type: cell-based; settings: N2a cells
T1 construct: Western Blot-Detection of KDM5A Levels in N2a Cells; endogenous in cells; host or cells: N2a (mouse neuroblastoma neuro-2a) cells
Experimental: (§1) The N2a cells (5 × 10^5 cells/2 mL/dish) were treated for 24 h with the test compounds at the indicated concentrations in a 10% FBS-supplemented cell culture medium, and cells were collected and extracted with SDS sampling buffer. Protein concentrations of the lysates were determined using a BCA protein assay. Equivalent amounts of protein from each lysate were resolved in 5% to 20% SDS-polyacrylamide gels, and bands were transferred onto PVDF membranes (Millipore, #IPVH00010 for β-actin detection, #ISEQ10100 for H3, H3K4me3, and H3K27Ac detection). After blocking with TBS-T containing 5% skimmed milk, the transblotted membranes were probed with primary antibodies. The following antibodies were used as the primary antibodies: rabbit monoclonal KDM5A antibody (CST #3876, 1 : 1000 dilution); mouse monoclonal β-actin antibody (Santa Cruz, #sc-47778, 1 : 2000 dilution); rabbit polyclonal H3K4me3 antibody (Abcam, #ab8580, 1 : 5000 dilution); rabbit polyclonal H3K27Ac antibody (Abcam, #ab4729, 1 : 1000 dilution); or rabbit polyclonal histone H3 antibody (Abcam, #ab1791, 1 : 200000 dilution). […]

[3] = system: H3K4me3; assay: Western blot detection of H3K4me3 levels; assay type: cell-based, Mouse; settings: N2a cells, 24 h treatment (Fig. 26)
Experimental: as §1

[4] = system: H3K27Ac; assay: Western blot detection of H3K27Ac levels; assay type: cell-based, Mouse; settings: N2a cells, 24 h treatment (Fig. 26)
Experimental: as §1

[5] = molecular target: KDM5A (Homo sapiens, UniProt P29375); assay: KDM5A inhibitory activity, in vitro assay; assay type: biochemical; settings: in vitro assay (Fig. 27)
[6] = molecular target: HDAC1 (Homo sapiens, UniProt Q13547); assay: HDAC1 inhibitory activity, in vitro assay; assay type: biochemical; settings: in vitro assay (Fig. 27)
Sequence of HDAC1 (Q13547 whole entry, species assumed): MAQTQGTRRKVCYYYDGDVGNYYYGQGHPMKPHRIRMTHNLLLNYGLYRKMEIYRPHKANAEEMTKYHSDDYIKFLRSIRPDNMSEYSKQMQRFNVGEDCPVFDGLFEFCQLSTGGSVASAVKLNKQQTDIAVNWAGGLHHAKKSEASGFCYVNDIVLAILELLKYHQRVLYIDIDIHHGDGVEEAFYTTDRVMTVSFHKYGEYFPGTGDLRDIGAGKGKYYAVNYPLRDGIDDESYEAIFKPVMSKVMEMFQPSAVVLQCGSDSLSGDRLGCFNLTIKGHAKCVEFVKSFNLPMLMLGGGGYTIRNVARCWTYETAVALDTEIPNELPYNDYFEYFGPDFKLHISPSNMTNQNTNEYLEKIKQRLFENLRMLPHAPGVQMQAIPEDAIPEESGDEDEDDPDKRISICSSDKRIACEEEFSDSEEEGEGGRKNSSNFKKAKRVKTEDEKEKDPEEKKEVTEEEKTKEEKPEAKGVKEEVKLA

T1 sequence (Q3UXZ9 whole entry): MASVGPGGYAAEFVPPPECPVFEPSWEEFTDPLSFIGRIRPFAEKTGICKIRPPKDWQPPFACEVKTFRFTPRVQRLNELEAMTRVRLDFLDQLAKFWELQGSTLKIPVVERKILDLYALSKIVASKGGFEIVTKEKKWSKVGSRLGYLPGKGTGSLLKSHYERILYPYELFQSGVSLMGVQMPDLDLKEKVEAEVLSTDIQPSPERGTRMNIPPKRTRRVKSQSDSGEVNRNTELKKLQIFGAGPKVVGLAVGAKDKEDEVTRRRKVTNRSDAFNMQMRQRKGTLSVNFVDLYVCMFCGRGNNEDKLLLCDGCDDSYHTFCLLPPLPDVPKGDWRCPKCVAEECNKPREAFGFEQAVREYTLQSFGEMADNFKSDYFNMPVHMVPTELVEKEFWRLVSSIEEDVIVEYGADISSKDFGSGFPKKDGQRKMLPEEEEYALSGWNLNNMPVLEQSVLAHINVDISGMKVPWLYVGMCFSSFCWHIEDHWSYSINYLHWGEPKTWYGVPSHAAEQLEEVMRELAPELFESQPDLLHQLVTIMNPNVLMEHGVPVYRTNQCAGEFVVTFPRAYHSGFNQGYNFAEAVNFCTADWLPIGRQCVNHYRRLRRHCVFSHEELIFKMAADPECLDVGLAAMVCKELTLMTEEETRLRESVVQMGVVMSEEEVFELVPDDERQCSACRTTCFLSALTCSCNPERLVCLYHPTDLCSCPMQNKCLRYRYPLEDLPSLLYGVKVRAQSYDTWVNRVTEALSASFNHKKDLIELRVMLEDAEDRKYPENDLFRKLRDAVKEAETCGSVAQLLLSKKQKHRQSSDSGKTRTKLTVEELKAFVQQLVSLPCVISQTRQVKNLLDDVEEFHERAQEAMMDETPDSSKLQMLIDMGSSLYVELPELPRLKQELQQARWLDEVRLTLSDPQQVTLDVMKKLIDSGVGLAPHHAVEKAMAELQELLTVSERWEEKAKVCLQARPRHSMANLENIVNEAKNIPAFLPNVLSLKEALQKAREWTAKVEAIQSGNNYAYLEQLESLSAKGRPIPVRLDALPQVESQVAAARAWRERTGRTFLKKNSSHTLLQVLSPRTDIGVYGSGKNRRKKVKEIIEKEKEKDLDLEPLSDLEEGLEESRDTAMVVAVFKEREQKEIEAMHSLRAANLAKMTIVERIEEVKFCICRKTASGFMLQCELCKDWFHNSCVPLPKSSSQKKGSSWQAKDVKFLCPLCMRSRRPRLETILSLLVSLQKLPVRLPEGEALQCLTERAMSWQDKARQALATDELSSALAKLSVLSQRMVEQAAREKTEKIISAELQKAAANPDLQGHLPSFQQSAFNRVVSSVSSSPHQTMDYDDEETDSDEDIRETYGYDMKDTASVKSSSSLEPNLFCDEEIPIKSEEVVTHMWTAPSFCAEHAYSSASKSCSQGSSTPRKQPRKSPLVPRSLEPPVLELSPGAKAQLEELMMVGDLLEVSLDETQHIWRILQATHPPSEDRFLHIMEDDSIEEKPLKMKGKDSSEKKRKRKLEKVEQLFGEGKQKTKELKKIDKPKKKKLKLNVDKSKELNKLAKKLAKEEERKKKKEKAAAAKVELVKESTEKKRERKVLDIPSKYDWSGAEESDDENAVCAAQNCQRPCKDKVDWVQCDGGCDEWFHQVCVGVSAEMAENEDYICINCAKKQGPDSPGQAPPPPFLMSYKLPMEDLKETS
Sequence of KDM5A (Homo sapiens, UniProt P29375) (P29375 whole entry, species assumed): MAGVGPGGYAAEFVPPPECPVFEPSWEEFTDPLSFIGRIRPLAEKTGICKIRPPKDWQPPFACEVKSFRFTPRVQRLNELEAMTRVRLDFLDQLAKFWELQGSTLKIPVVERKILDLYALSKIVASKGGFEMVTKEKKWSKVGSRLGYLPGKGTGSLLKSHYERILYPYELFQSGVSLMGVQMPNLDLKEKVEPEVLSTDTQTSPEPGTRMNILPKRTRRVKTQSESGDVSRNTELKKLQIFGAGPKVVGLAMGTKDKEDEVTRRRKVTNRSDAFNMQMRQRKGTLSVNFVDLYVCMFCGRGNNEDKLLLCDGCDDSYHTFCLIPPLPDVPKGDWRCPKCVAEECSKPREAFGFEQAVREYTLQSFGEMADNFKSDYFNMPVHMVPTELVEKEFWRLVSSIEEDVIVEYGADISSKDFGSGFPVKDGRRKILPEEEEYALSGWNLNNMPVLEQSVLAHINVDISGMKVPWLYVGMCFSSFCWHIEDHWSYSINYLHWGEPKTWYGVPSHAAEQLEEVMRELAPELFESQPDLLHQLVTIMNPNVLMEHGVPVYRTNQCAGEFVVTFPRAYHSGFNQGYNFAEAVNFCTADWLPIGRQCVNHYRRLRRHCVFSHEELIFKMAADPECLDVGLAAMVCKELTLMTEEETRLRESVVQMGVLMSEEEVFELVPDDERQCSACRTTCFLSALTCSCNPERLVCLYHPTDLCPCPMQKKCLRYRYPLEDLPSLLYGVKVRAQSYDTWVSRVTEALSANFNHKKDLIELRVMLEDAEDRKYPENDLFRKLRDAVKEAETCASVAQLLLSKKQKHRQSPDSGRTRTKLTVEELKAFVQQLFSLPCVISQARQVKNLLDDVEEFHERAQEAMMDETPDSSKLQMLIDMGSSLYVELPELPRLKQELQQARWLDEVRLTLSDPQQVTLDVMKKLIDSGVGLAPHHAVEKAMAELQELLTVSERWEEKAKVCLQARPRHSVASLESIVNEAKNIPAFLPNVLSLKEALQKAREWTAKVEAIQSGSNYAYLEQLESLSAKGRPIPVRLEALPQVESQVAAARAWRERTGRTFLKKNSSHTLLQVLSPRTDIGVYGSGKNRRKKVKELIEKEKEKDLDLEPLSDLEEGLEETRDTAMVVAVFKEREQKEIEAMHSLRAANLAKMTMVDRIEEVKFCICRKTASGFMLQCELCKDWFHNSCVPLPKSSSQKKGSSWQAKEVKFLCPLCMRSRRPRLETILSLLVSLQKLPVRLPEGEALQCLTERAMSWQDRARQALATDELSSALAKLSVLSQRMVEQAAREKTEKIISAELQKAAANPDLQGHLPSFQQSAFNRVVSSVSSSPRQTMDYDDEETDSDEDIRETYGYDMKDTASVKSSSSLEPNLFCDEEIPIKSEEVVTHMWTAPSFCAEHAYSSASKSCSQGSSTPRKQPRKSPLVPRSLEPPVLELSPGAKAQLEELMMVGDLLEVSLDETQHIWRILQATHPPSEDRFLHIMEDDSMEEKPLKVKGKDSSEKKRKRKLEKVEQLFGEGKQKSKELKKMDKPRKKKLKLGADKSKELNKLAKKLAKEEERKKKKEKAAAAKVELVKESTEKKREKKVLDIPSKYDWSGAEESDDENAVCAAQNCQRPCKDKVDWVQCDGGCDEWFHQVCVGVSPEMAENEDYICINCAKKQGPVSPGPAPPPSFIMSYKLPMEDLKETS

Compound: O=C1CCC(N2C(=O)c3ccccc3C2=O)C(=O)N1 (centres unmarked) [Compound 26, thalidomide, reference compound]
dose-dependent neurite outgrowth activity ([1]; N2a cells): did not show strong neurite outgrowth activity relative to Compounds 20b and 23b

KDM5A inhibitory activity [5]: strongly inhibited KDM5A
HDAC1 inhibitory activity [6]: without affecting HDAC1
Compound: CC(C)c1c(-c2ccc(CCN(C)CCCCCCc3cccc(C(=O)NCCCCCCOc4cccc5c4C(=O)N(C4CCC(=O)NC4=O)C5=O)c3)cc2)[nH]c2c(C#N)cnn2c1=O (centres unmarked) [Compound 23b, 3-(6-{[4-(3-Cyano-6-isopropyl-7-oxo-4,7-dihydropyrazolo[1,5-a]pyrimidin-5-yl)phenethyl](methyl)-amino}hexyl)-N-(6-{[2-(2,6-dioxopiperidin-3-yl)-1,3-dioxoindolin-4-yl]oxy}hexyl)benzamide Hydrochloride]
neurite outgrowth-promoting activity, overall assessment ([1]; N2a cells (Fig. 21(B))): remarkable neurite outgrowth-promoting activity
time-dependent neurite outgrowth activity (number of neurite cells) ([1]; N2a cells, 0.02 µM, 24, 48 and 72 hours (Fig. 21(D))): increased the number of neurite cells in a time-dependent manner
neurite outgrowth ([1]; N2a cells): promoted neurite outgrowth
neurite outgrowth-promoting activity, comparison between compounds ([1]; N2a cells, Hydrochloride): superior to those of the para-substituent compounds 20a and 23a; also recorded: slightly better than that of the polyethylene linker compound 20b
dose-dependent neurite outgrowth activity ([1]; N2a cells): promoted neurite outgrowth
KDM5A levels on co-treatment with proteasome inhibitor MG-132 ([2]; 24 h co-treatment with MG-132 (Fig. 25(C), 25(D))): disturbed by the proteasome inhibitor MG-132
KDM5A levels ([2]; 24 h treatment (Fig. 25(A), 25(B))): decreased KDM5A levels in a dose-dependent manner
H3K4me3 levels [3]: dose-dependent accumulation of H3K4me3 levels
H3K27Ac levels [4]: upregulated H3K27Ac levels

Compound: CC(C)c1c(-c2ccc(CCN(C)CCCCCCc3ccc(C(=O)NCCCCCCOc4cccc5c4C(=O)N(C4CCC(=O)NC4=O)C5=O)cc3)cc2)[nH]c2c(C#N)cnn2c1=O (centres unmarked) [Compound 23a, 4-(6-{[4-(3-cyano-6-isopropyl-7-oxo-4,7-dihydropyrazolo[1,5-a]pyrimidin-5-yl)phenethyl](methyl)amino}hexyl)-N-(6-{[2-(2,6-dioxopiperidin-3-yl) -1, 3 - dioxoindolin-4-yl]oxy}hexyl) benzamide hydrochloride]
neurite outgrowth ([1]; N2a cells): promoted neurite outgrowth

Compound: CC(C)c1c(-c2ccc(CCN(C)CCCCCCCCCC(=O)NCCOCCOCCOc3cccc4c3C(=O)N(C3CCC(=O)NC3=O)C4=O)cc2)[nH]c2c(C#N)cnn2c1=O (centres unmarked) [Compound 14b, 10-{[4-(3-Cyano-6-isopropyl-7-oxo-4,7-dihydropyrazolo[1,5-a]pyrimidin-5-yl)phenethyl](methyl)-amino}-N-{2-[2-(2,6-dioxopiperidin-3-yl)-1,3-dioxoindolin-4-yl]oxy}ethoxy}ethyl}decanamide Hydrochloride]
neurite outgrowth ([1]; N2a cells): promoted neurite outgrowth
neurite outgrowth-promoting activity, comparison between compounds ([1]; N2a cells): stronger neurite outgrowth-promoting activity than compound 14a

Compound: CC(C)c1c(-c2ccc(CCN(C)CCCCCCc3ccc(C(=O)NCCOCCOCCOc4cccc5c4C(=O)N(C4CCC(=O)NC4=O)C5=O)cc3)cc2)[nH]c2c(C#N)cnn2c1=O (centres unmarked) [Compound 20a]
neurite outgrowth ([1]; N2a cells): promoted neurite outgrowth

Compound: CC(C)c1c(-c2ccc(CCN(C)CCCCCCC(=O)NCCOCCOCCOc3cccc4c3C(=O)N(C3CCC(=O)NC3=O)C4=O)cc2)[nH]c2c(C#N)cnn2c1=O (centres unmarked) [Compound 14a, hydrochloride]
neurite outgrowth ([1]; N2a cells): promoted neurite outgrowth
